The test system of experiment [1] is collagen type I gene expression. As to the kind of experiment: Northern blot for collagen type I gene expression in myometrial and leiomyosarcoma cells. Format: cell-based, human. Particulars: increasing concentrations, about 48 hours. The protocol:
Myometrial and leiomyosarcoma cells were taken from the same patient and were plated into 10 cm plates in DMEM supplemented with 10% FCS. When the cells reached 80% confluence, the medium was replaced by serum free DMEM plus 0.1% BSA for 48 hours, washed and exposed to increasing concentrations of Halofuginone in the same medium for about 48 hours at about 37° C. The cells were then harvested and subjected to RNA extraction and Northern blot analysis for collagen type I gene expression.

The test system is the same in experiment [2]. As to the kind of experiment: Northern blot for collagen type I gene expression in human skin fibroblasts. Type of experiment: cell-based. Particulars: primary culture. The protocol: (§1) Next, human skin fibroblasts were taken from a subject and were maintained in primary culture. Control cells were treated with vehicle while Halofuginone-treated cells were treated with Halofuginone as previously described. The cells were then harvested and subjected to RNA extraction and Northern blot analysis for collagen type I gene expression and for cKrox gene expression.

Experiment [3] concerns cKrox gene expression. Put plainly: Northern blot for cKrox gene expression in human skin fibroblasts. As to conditions: primary culture. Type of experiment: cell-based. The protocol:
as §1

The subject of experiment [4] is MMP2 (72 kDa type IV collagenase). Put plainly: Gelatin zymography of type IV collagenase activity in T50 bladder carcinoma cell cultures. Format: cell-based. The protocol:
Sub-confluent cell cultures were incubated for 6-24 h in serum-free DMEM. The collagenolytic activity was determined on a gelatin impregnated (1 mg/ml. Difco, Detroit, Mich.) SDS-PAGE 8% gel. Briefly, culture media samples were separated on the substrate impregnated gels under non reducing conditions, followed by 30 min incubation in 2.5% Triton X-100 (BDH, England). The gels were then incubated for 16 h at 37° C. in 50 mM Tris, 0.2 M NaCl, 5 mM CaCl2, 0.02% Brij 35 (weight/volume) at pH 7.5. At the end of incubation period, the gels were stained with 0.5% Coomassie G250 (Bio-Rad Richmond Calif.) in methanol/acetic acid/H2O (30:10:60). The intensity of the various bands was determined on a computerized densitometer (Molecular Dynamics type 300A).

Experiment [5] has as its system cell invasion through matrigel ECM. Put plainly: Boyden chamber invasion assay. Format: cell-based. As to conditions: data not shown. From the text: Such inhibition supports the inclusion of type IV collagenase inhibition as part of the extracellular matrix economy mechanism, in which Halofuginone inhibits undesirable pathological processes such as tumor growth, progression and metastasis, as described previously.

The subject of experiment [6] is H19 gene. As to the kind of experiment: Northern blot for H19 gene expression in bladder carcinoma cell lines. Type of experiment: cell-based, human. As to conditions: 130 ng/ml. The protocol:
RT112 and 5376 human bladder carcinoma cell lines were cultured in the absence and presence of Halofuginone (130 ng/ml, added 24 h or 72 h after seeding), and the expression of the H19 gene was evaluated by Northern blot analysis ([…]. et al., Arterioscler. Thromb. Vasc. Biol., Vol. 17, p. 194-202, 1997). […] Such inhibition also supports the inclusion of the inhibition of H19 gene expression as part of the extracellular matrix economy mechanism, as described previously.

Experiment [7] deals with αv integrin subunit. Put plainly: Northern blot for integrin αv mRNA in MDA 435 breast carcinoma cells. Format: cell-based, human. Particulars: MDA 435 cells. The protocol:
(§2) Therefore, the effect of Halofuginone was investigated on the expression of αv, β3 and β5 integrin subunits in the highly aggressive MDA 435 human breast carcinoma cell line. Cells were cultured in the absence (FIG. 4, lanes A & B) or presence of increasing concentrations (10-400 ng/ml) of Halofuginone for 24 h (lane C: 400 ng/ml), 48 h (lanes D-G: 10, 50, 200, and 400 ng/ml, respectively) or 72 h (FIG. 4, lane H: 400 ng/ml). Total RNA was extracted, subjected to 1.1% formaldehyde-agarose gel electrophoresis, transferred to a nylon membrane and hybridized with ^32P-labeled PCR probe corresponding to αv. […] This effect was […] at higher concentrations (200-400 ng/ml) of Halofuginone (FIG. 4, lanes F-H). Next, RT-PCR was used to analyze the effect of Halofuginone on expression of the β3 and β5 integrin chains by the MDA 435 breast carcinoma cells. […] In contrast, there was no effect on expression of the β5 mRNA. As the αvβ3 integrin complex plays an important role in tumor angiogenesis, the anti-angiogenic effect of Halofuginone may be mediated in part by its inhibition of the β3 gene expression.

For experiment [8], the system named is β3 integrin chain. Put plainly: RT-PCR for β3 integrin chain in MDA 435 breast carcinoma cells. Format: cell-based, human. Particulars: MDA 435 cells, 24 h, 200 ng/ml. The protocol:
as §2

Experiment [9] deals with β5 integrin chain. Put plainly: RT-PCR for β5 integrin chain in MDA 435 breast carcinoma cells. Type of experiment: cell-based, human. As to conditions: MDA 435 cells, 24 h, 10-400 ng/ml. The protocol: as §2
The test system of experiment [10] is Ang II-induced cardiac fibrosis. Put plainly: Ang II-induced cardiac fibrosis in rats: histology and collagen volume quantitation (Sirius red). Type of experiment: in vivo, rat. The protocol:
The experimental method was as follows. Male Sprague-Dawley rats were divided into four groups. Two groups were chronically infused with Ang II at the rate of 0.150 ng/min by implanted mini-pump. This dosage regimen will induce severe cardiac fibrosis. The other two groups of rats, control rats, were injected with saline. One group of Ang II-treated rats and one control group were daily injected intraperitoneally with 16 micrograms of Halofuginone. At the end of the experimental period, the rats were sacrificed and the heart was removed and weighed. Heart samples were taken for histological examination. Briefly, the tissue samples were collected into phosphate-buffered saline (PBS) and fixed overnight in 4% paraformaldehyde in PBS at 4° C. Serial 5 μm sections were prepared after the samples had been dehydrated in graded ethanol solutions, cleared in chloroform and embedded in Paraplast. Differential staining of collagenous and non-collagenous proteins was performed with 0.1% Sirius red and 0.1% fast green as a counter-stain in picric acid. This procedure stains collagen red [Gascon-Barre, M., et al., J. Histochem. Cytochem., 37:377-381, 1989]. […] Indeed, the ventricular collagen volume fraction (CVF) was increased by threefold (p<0.05) in rats treated with Ang II, compared to rats treated with either Halofuginone alone or Halofuginone plus Ang II. In addition, the ventricular CVF for control rats was identical to that for rats treated with Halofuginone alone.

Experiment [11] concerns collagen α1(I) gene. Put plainly: Ang II rat model: in situ hybridization of heart tissue with rat collagen α1(I) probe. Particulars: rats given both Halofuginone and Ang II vs Ang II alone. Type of experiment: in vivo. The protocol: (§3) The experimental method was as follows. Male Sprague-Dawley rats were divided into four groups. Two groups were chronically infused with Ang II at the rate of 0.150 ng/min by implanted mini-pump. This dosage regimen will induce severe cardiac fibrosis. The other two groups of rats, control rats, were injected with saline. One group of Ang II-treated rats and one control group were daily injected intraperitoneally with 16 micrograms of Halofuginone. At the end of the experimental period, the rats were sacrificed and the heart was removed and weighed. Heart samples were then hybridized with a probe for rat collagen α1(I) expression, or with a probe for TGF β1 expression. For hybridization with one of the genetic probes, the sections were deparafinized in xylene, rehydrated through a graded series of ethanol solutions, rinsed in distilled water for 5 minutes and then incubated in 2×SSC at 70° C. for 30 minutes. The sections were then rinsed in distilled water and treated with pronase, 0.125 mg/ml in 50 mM Tris-HCl, 5 mM EDTA, pH 7.5, for 10 minutes. After digestion, the slides were rinsed with distilled water, post-fixed in 10% formalin in PBS and blocked in 0.2% glycine. After blocking, the slides were rinsed in distilled water, rapidly dehydrated through graded ethanol solutions and air-dried for several hours. […]

Experiment [12] concerns TGF β. As to the kind of experiment: Ang II rat model: in situ hybridization of heart tissue with TGF-β1 probe. Format: in vivo. Particulars: rats given Ang II plus Halofuginone vs Ang II. The protocol: as §3
The subject of experiment [13] is cytokine IL-1β release. Put plainly: Cytokine IL-1β release assay (MDS Panlabs). Type of experiment: cell-based. The protocol: (§4) The ability of Halofuginone to inhibit various biochemical processes according to a set of assays for determining the percent inhibition of specific binding or activity of particular cellular proteins is described in greater detail in Table 1 below. The assays were performed by MDS Panlabs Inc. (Bothell, […]., USA). These assays included: the inhibition of release of the cytokines IL-1β and TNF-α; and the inhibition of the transcription of NF-κB.

Experiment [14] concerns cytokine TNF-α release. Put plainly: Cytokine TNF-α release assay (MDS Panlabs). Format: cell-based. The protocol: as §4
Experiment [15] concerns NF-κB transcription. As to the kind of experiment: NF-κB transcription assay (MDS Panlabs). Type of experiment: cell-based. The protocol: as §4
For experiment [16], the system named is collagen α1(I) mRNA. Put plainly: Collagen α1(I) mRNA level in primary human fibroblasts. Type of experiment: cell-based. Particulars: tested at the level of RNA. The protocol:
The same protocol was used as previously. Primary human fibroblasts were treated for 1 hr with 10^−8 M Halofuginone. […] Arrays include 265 genes known to be involved in various types of cell interactions.

The IC50 is the concentration needed to halve the response being measured. A high value points to weaker potency in that assay. Take `O=C(CC1NCCC[C@H]1O)Cn1cnc2cc(Br)c(Cl)cc2c1=O` (stereo partly drawn) [Halofuginone]: the “collagen type I gene expression (products at 5.4 and 4.8 kb)” value in [1] was “inhibited collagen type I gene expression”. Moreover, the “collagen type I gene expression” value in experiment [2] was “inhibiting collagen type I gene expression”. In addition, the cKrox gene expression result in experiment [3] is recorded as “promoted cKrox gene expression”. Further, the results for the “inhibition of the activity of MMP2 (72 kDa type IV collagenase)” value in experiment [4] (25 ng/ml) and in experiment [4] (100 ng/ml) were “profound inhibition” and “almost complete inhibition”, respectively. The “cell invasion through matrigel ECM” value in [5] is “inhibit cell invasion”. Also, the “expression of the H19 gene” value in [6] (5376 bladder carcinoma cell line) and in [6] (RT112 bladder carcinoma cell line) was “substantial reduction” throughout. Moreover, the “αv mRNA expression (up regulation effect)” value in experiment [7] (200-400 ng/ml) was “minimal”. In addition, the “αv mRNA expression” value in experiment [7] (48 h, 10 and 50 ng/ml) is “up regulation”. Also, in experiment [8], the “β3 mRNA expression” value is “almost complete inhibition”. In experiment [9], the “β5 mRNA expression” value is given as “no effect”. Further, in experiment [10] (Ang II-infused rats, 16 micrograms daily intraperitoneally), the “Ang II-induced morphological changes in rat heart (histology)” value was “substantially inhibited”. Besides, the “ventricular CVF” value in experiment [10] (Halofuginone alone, without Ang II, two week period) is listed as “did not alter”. Moreover, in [10] (rats given both Ang II and Halofuginone vs Ang II alone, 16 micrograms daily i.p.), the “ventricular collagen volume (CVF)” value was “markedly reduced”. For the same compound, the “expression of collagen α1(I) gene in rat heart” value in [11] is “marked reduction”. In addition, the “Ang II-induced increase in expression of mRNA for TGF β in rat heart” value in experiment [12] is “not affected”. Also, the IC50 in [13] is 0.0317 µM; in experiment [14], 0.0068 µM; in experiment [15], 0.025 µM. Moreover, in experiment [16], the “collagen α1(I) mRNA” value is on record as “reduced”.

The record behind these values is patent US20070010538A1, “Inhibition of pathogenic processes related to tissue trauma” (priority 1998, published 2007).
